# Measured values reported in patent publication US7367988B1, “Use of electromagnetic fields in cancer and other therapies” (The Catholic University of America, priority 2000, dated 2008).
# Like-named read-outs stand apart in the source and are kept apart here.
# Tested on: chick embryos
# Protocol: I have investigated the effect of EM fields on the ability of taxol to create abnormalities in rapidly dividing cells. The model for this purpose was chick embryos. The embryos were incubated in the presence of a 60 Hz, 8 μT EM field. After 48 hours of continuous incubation, either dimethyl sulfoxide (DMSO) alone (controls) or Taxol dissolved in DMSO was injected. EM field incubation was continued for an additional 48 hours. At the end of 4 days incubation, embryos were visualized and classified as normal or abnormal (deformed, young, or dead).
structure (smiles),measurement,setting,value
CC(=O)O[C@H]1C(=O)[C@@]2(C)[C@H]([C@H](OC(=O)c3ccccc3)[C@]3(O)C[C@H](OC(=O)[C@H](O)[C@@H](NC(=O)c4ccccc4)c4ccccc4)C(C)=C1C3(C)C)[C@]1(OC(C)=O)CO[C@@H]1C[C@@H]2O [Taxol],Percent Abnormal Embryos,"Taxol + EM fields: 60 Hz, 8 μT for 48 hours before injection and an additional 48 hours after, embryos classified at 4 days",31.1%
same,Percent Abnormal Embryos,"Taxol alone, dissolved in DMSO, injected after 48 hours of incubation, embryos classified normal or abnormal (deformed, young, or dead) at 4 days",19.3%
same,Toxic effect of taxol with EM field exposure compared with taxol alone,in vivo,very significant increase in the toxic effect
